Results as given in US11629171B2, “Beta-hairpin peptidomimetics” (POLYPHOR AG, priority 2017, dated 2023).
Converted amounts (≈) assume the structure as drawn. Where a SMILES comes first, the peptide text is derived from it. Bridges are numbered along the chain shown (N, C = ends). Roman numbers before positions name the chains, in order. [ ]: non-standard residue; d: D form. Thr(ol) = C[C@@H](O)[C@H](N)CO; Pen = CC(C)(S)[C@H](N)C(=O)O; Tle = CC(C)(C)[C@H](N)C(=O)O; Hiv = CC(C)[C@H](O)C(=O)O; dDab = NCC[C@@H](N)C(=O)O; hSer = N[C@@H](CCO)C(=O)O; Nle = CCCC[C@H](N)C(=O)O; Orn = NCCC[C@H](N)C(=O)O; Dab = NCC[C@H](N)C(=O)O; Dap = NC[C@H](N)C(=O)O

Key:
Format in all cases: cell-based
[1] = system: Acinetobacter baumannii 872842; details: 872842
Procedure, shortened: (§1)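 Peptides are tested in serial two-fold dilutions against about 10^6 CFU/mL in MH-II broth containing 0.002% P-80 (v/v, final). Plates incubate 18-20 h at 35° C, and the MIC is the lowest peptide level (μg/mL) showing no visible growth.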

[2] = system: Acinetobacter baumannii DSM 30008; details: DSM 30008
Procedure, shortened: as §1

[3] = system: Enterobacter cloacae 848840; details: 848840
Procedure, shortened: as §1

Escherichia coli 926415 = details: 926415
Procedure, shortened: as §1

[4] = system: Escherichia coli ATCC 25922; details: ATCC 25922
Procedure, shortened: as §1

[5] = system: Klebsiella pneumoniae 968733; details: 968733
Procedure, shortened: as §1

[6] = system: Klebsiella pneumoniae SSI #3010; details: SSI #3010
Procedure, shortened: as §1

[7] = system: Pseudomonas aeruginosa ATCC 27853; details: ATCC 27853
Procedure, shortened: as §1

[8] = system: human red blood cells (hRBC); experiment: Hemolysis; details: red cells of human, 1 h, 200
Procedure, shortened: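 hRBC washed 4× in PBS; 200 μg/mL peptide + 20% (v/v) hRBC, 1 h, 37° C, 300 rpm. Spin, supernatant ~7.5-fold diluted, OD540 blank corrected. % hemolysis = OD540 peptide / OD540 Triton X-100 × 100.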

Row | Structure (SMILES) | MIC [1] [µg/mL] | MIC [2] [µg/mL] | MIC [3] [µg/mL] | MIC (Escherichia coli 926415) [µg/mL] | MIC [4] [µg/mL] | MIC [5] [µg/mL] | MIC [6] [µg/mL] | MIC [7] [µg/mL] | Acinetobacter baumannii DSM 30008 MIC [2] [µg/mL] | Escherichia coli ATCC 25922 MIC [4] [µg/mL] | Klebsiella pneumoniae SSI #3010 MIC [6] [µg/mL] | Pseudomonas aeruginosa ATCC 27853 MIC [7] [µg/mL] | Hemolysis at 200 μg/mL [8] [%]
1 | CCCC[C@H](NC(C)=O)C(=O)N[C@H]1CCCNC(=O)[C@@H]([C@H](C)O)NC(=O)[C@H](C(C)(C)C)NC(=O)[C@H](CO)NC(=O)[C@H](Cc2c[nH]c3ccccc23)NC(=O)[C@H](CCO)NC(=O)[C@@H](CCN)NC(=O)[C@H](CCC(=O)N[C@@H](CCN)C(=O)N[C@H](C(=O)N[C@@H](CN)C(=O)N[C@H]2CCNC(=O)[C@H]([C@@H](C)O)NC(=O)[C@H](CCN)NC(=O)[C@H](CCN)NC(=O)[C@H](CC(C)C)NC(=O)[C@@H](CC(C)C)NC(=O)[C@H](CCN)NC2=O)[C@@H](C)O)NC(=O)[C@H](CN)NC(=O)[C@H](Cc2ccc(O)cc2)NC1=O [Ex. 34] (I: Ac-[Nle][Orn]Y[Dap]E[dDab][hSer]WS[Tle][dT] / II: [Dab]T[Dap][Dab][Dab][dL]L[Dab][Dab]T; lactam I:2-I:C, II:4-II:C; amide I:5-II:N) | 0.0625 (≈ 0.0268 µM) | 0.03125 (≈ 0.0134 µM) | 0.125 (≈ 0.0536 µM) | 0.0625 (≈ 0.0268 µM) | 0.0625 (≈ 0.0268 µM) | 0.125 (≈ 0.0536 µM) | 0.125 (≈ 0.0536 µM) | 0.25 (≈ 0.107 µM) |  |  |  |  | <1
2 | CC(C)C[C@@H]1NC(=O)[C@@H](CC(C)C)NC(=O)[C@H](CCN)NC(=O)[C@@H](NC(=O)[C@H](CCN)NC(=O)[C@@H](NC(=O)[C@H](CCN)NC(=O)CC[C@@H]2NC(=O)[C@H](CCN)NC(=O)[C@H](Cc3ccc(O)cc3)NC(=O)[C@@H](NC(=O)[C@@H](N)C(C)C)C(C)(C)SSC[C@@H](C(=O)N[C@@H](CO)C(=O)O)NC(=O)[C@H](C(C)(C)C)NC(=O)[C@H](CO)NC(=O)[C@H](Cc3c[nH]c4ccccc34)NC(=O)[C@H]([C@@H](C)O)NC(=O)[C@@H](CCN)NC2=O)[C@@H](C)O)CCNC(=O)[C@H]([C@@H](C)O)NC(=O)[C@H](CCN)NC(=O)[C@H](CCN)NC1=O [Ex. 54] (I: H-V[Pen]Y[Dab]E[dDab]TWS[Tle]CS-OH / II: [Dab]T[Dab][Dab][Dab][dL]L[Dab][Dab]T; disulfide I:2-I:11; amide I:5-II:N; lactam II:4-II:C) | 0.5 (≈ 0.206 µM) | 0.25 (≈ 0.103 µM) | 4 (≈ 1.65 µM) | 0.5 (≈ 0.206 µM) | 0.0625 (≈ 0.0257 µM) | 4 (≈ 1.65 µM) | 0.25 (≈ 0.103 µM) | 0.25 (≈ 0.103 µM) |  |  |  |  | <1
3 | CC(C)C[C@@H]1NC(=O)[C@@H](CC(C)C)NC(=O)[C@H](CCN)NC(=O)[C@@H](NC(=O)[C@H](CN)NC(=O)[C@@H](NC(=O)[C@H](CCN)NC(=O)CC[C@@H]2NC(=O)[C@H](CCN)NC(=O)[C@H](Cc3ccc(O)cc3)NC(=O)[C@@H](NC(=O)[C@@H](O)C(C)C)CSSC(C)(C)[C@@H](C(=O)N[C@@H](CO)C(N)=O)NC(=O)[C@H](C(C)C)NC(=O)[C@H](CO)NC(=O)[C@H](Cc3c[nH]c4ccccc34)NC(=O)[C@H](CO)NC(=O)[C@@H](CCN)NC2=O)[C@@H](C)O)CCNC(=O)[C@H]([C@@H](C)O)NC(=O)[C@H](CCN)NC(=O)[C@H](CCN)NC1=O [Ex. 301] (I: H-[Hiv]CY[Dab]E[dDab]SWSV[Pen]S-NH2 / II: [Dab]T[Dap][Dab][Dab][dL]L[Dab][Dab]T; disulfide I:2-I:11; amide I:5-II:N; lactam II:4-II:C) | 0.25 (≈ 0.105 µM) |  | 0.125 (≈ 0.0524 µM) | 0.125 (≈ 0.0524 µM) |  | 0.5 (≈ 0.21 µM) |  |  | 0.0625 | 0.0625 | 0.125 | 0.125 | 2
4 | CC(=O)N[C@H](C(=O)N[C@H]1CSSC[C@@H](C(=O)N[C@@H](CO)C(N)=O)NC(=O)[C@H](C(C)C)NC(=O)[C@H](CC(=O)O)NC(=O)[C@H](Cc2c[nH]c3ccccc23)NC(=O)[C@H](CO)NC(=O)[C@@H](CCN)NC(=O)[C@H](CCC(=O)N[C@@H](CCN)C(=O)N[C@H](C(=O)N[C@@H](CN)C(=O)N[C@H]2CCNC(=O)[C@H]([C@@H](C)O)NC(=O)[C@H](CCN)NC(=O)[C@H](CCN)NC(=O)[C@H](CC(C)C)NC(=O)[C@@H](CC(C)C)NC(=O)[C@H](CCN)NC2=O)[C@@H](C)O)NC(=O)[C@H](CCCCN)NC(=O)[C@H](Cc2ccc(O)cc2)NC1=O)C(C)C [Ex. 152] (I: Ac-VCYKE[dDab]SWDVCS-NH2 / II: [Dab]T[Dap][Dab][Dab][dL]L[Dab][Dab]T; disulfide I:2-I:11; amide I:5-II:N; lactam II:4-II:C) | 1 (≈ 0.407 µM) | 0.125 (≈ 0.0509 µM) | 0.5 (≈ 0.204 µM) | 2 (≈ 0.815 µM) | 0.125 (≈ 0.0509 µM) | 8 (≈ 3.26 µM) | 0.25 (≈ 0.102 µM) | 0.25 (≈ 0.102 µM) |  |  |  |  | <1
5 | CCCC[C@@H]1NC(=O)[C@H](CO)NC(=O)[C@H](Cc2c[nH]c3ccccc23)NC(=O)[C@H](CO)NC(=O)[C@@H](CCN)NC(=O)[C@H](CCC(=O)N[C@@H](CCN)C(=O)N[C@H](C(=O)N[C@@H](CN)C(=O)N[C@H]2CCNC(=O)[C@H]([C@@H](C)O)NC(=O)[C@H](CCN)NC(=O)[C@H](CCN)NC(=O)[C@H](CC(C)C)NC(=O)[C@@H](CC(C)C)NC(=O)[C@H](CCN)NC2=O)[C@@H](C)O)NC(=O)[C@H](CCN)NC(=O)[C@H](Cc2ccc(O)cc2)NC(=O)[C@@H](NC(=O)[C@@H](NC(C)=O)C(C)C)CCNC(=O)C[C@@H](C(=O)N[C@@H](CO)C(N)=O)NC1=O [Ex. 325] (I: Ac-V[Dab]Y[Dab]E[dDab]SWS[Nle]DS-NH2 / II: [Dab]T[Dap][Dab][Dab][dL]L[Dab][Dab]T; lactam I:2-I:11, II:4-II:C; amide I:5-II:N) | 0.125 (≈ 0.052 µM) |  | 0.0625 (≈ 0.026 µM) | 0.125 (≈ 0.052 µM) |  | 0.5 (≈ 0.208 µM) |  |  | 0.0625 | 0.0625 | 0.0625 | 0.125 | <1

Now from value to molecule, other results behind:

Row | MIC [1] [µg/mL] | MIC [2] [µg/mL] | MIC [3] [µg/mL] | MIC (Escherichia coli 926415) [µg/mL] | MIC [4] [µg/mL] | MIC [5] [µg/mL] | MIC [6] [µg/mL] | MIC [7] [µg/mL] | Acinetobacter baumannii DSM 30008 MIC [2] [µg/mL] | Escherichia coli ATCC 25922 MIC [4] [µg/mL] | Klebsiella pneumoniae SSI #3010 MIC [6] [µg/mL] | Pseudomonas aeruginosa ATCC 27853 MIC [7] [µg/mL] | Structure (SMILES) | Hemolysis at 200 μg/mL [8] [%]
6 | 0.0625 (≈ 0.0254 µM) | 0.0625 (≈ 0.0254 µM) | 0.125 (≈ 0.0509 µM) | 0.125 (≈ 0.0509 µM) | 0.0625 (≈ 0.0254 µM) | 0.125 (≈ 0.0509 µM) | 0.125 (≈ 0.0509 µM) | 0.125 (≈ 0.0509 µM) |  |  |  |  | CC(C)C[C@@H]1NC(=O)[C@@H](CC(C)C)NC(=O)[C@H](CCN)NC(=O)[C@@H](NC(=O)[C@H](CCN)NC(=O)[C@@H](NC(=O)[C@H](CCN)NC(=O)CC[C@@H]2NC(=O)[C@H](CCN)NC(=O)[C@H](Cc3ccc(O)cc3)NC(=O)[C@@H](NC(=O)[C@@H](O)C(C)C)CSSC[C@@H](C(=O)N[C@H](CO)[C@@H](C)O)NC(=O)[C@H](C(C)(C)C)NC(=O)[C@H](CO)NC(=O)[C@H](Cc3c[nH]c4ccccc34)NC(=O)[C@H](CCO)NC(=O)[C@@H](CCCNC(=N)N)NC2=O)[C@@H](C)O)CCNC(=O)[C@H]([C@@H](C)O)NC(=O)[C@H](CCN)NC(=O)[C@H](CCN)NC1=O [Ex. 75] (I: H-[Hiv]CY[Dab]E[dR][hSer]WS[Tle]C[Thr(ol)] / II: [Dab]T[Dab][Dab][Dab][dL]L[Dab][Dab]T; disulfide I:2-I:11; amide I:5-II:N; lactam II:4-II:C) | <1
7 | 0.03125 (≈ 0.013 µM) |  | 0.0625 (≈ 0.0259 µM) | 0.0625 (≈ 0.0259 µM) |  | 0.0625 (≈ 0.0259 µM) |  |  | 0.01562 | 0.01562 | 0.0625 | 0.0625 | CCCC[C@@H]1NC(=O)[C@H](CO)NC(=O)[C@H](Cc2c[nH]c3ccccc23)NC(=O)[C@H](CO)NC(=O)[C@@H](CCN)NC(=O)[C@H](CCC(=O)N[C@@H](CCN)C(=O)N[C@H](C(=O)N[C@@H](CN)C(=O)N[C@H]2CCNC(=O)[C@H]([C@@H](C)O)NC(=O)[C@H](CCN)NC(=O)[C@H](CCN)NC(=O)[C@H](CC(C)C)NC(=O)[C@@H](CC(C)C)NC(=O)[C@H](CCN)NC2=O)[C@@H](C)O)NC(=O)[C@H](CCN)NC(=O)[C@H](Cc2ccc(O)cc2)NC(=O)[C@@H](NC(=O)[C@@H](NC(C)=O)C(C)C)CSSC[C@@H](C(=O)N[C@@H](CO)C(N)=O)NC1=O [Ex. 316] (I: Ac-VCY[Dab]E[dDab]SWS[Nle]CS-NH2 / II: [Dab]T[Dap][Dab][Dab][dL]L[Dab][Dab]T; disulfide I:2-I:11; amide I:5-II:N; lactam II:4-II:C) | <1
